Patent US11771694B2, “Arylamide compounds for treatment and prevention of viral infections” (priority 2020, dated 2023)
Values after ≈ are worked out from the molar mass of the structure shown. Read-outs that look alike come from different tables or passages of the source.

What was measured:
[1] = tested on: stationary phase cultures of MSSA and MRSA; test: Time-kill against stationary phase cultures of MSSA and MRSA; format: cell-based, Staph. aureus; conditions: stationary phase MSSA and MRSA; 2×MIC
LPS-induced IL-8 release = test: LPS-induced IL-8 release, THP-1 cells, ELISA; format: cell-based; conditions: Homo sapiens, 8-hour exposure, read-out: IC50, inhibition of LPS-induced IL-8 release
[2] = tested on: LPS-induced TNF-α release; test: LPS-induced TNF-α release, THP-1 cells, ELISA; format: cell-based; conditions: Homo sapiens, 8-hour exposure, read-out: IC50, inhibition of LPS-induced TNF-α release
Vero cells = conditions: 24 hours
[3] = tested on: mammalian cells (RBCs, 3T3, HepG2); format: cell-based
Entero. faecalis = test: Broth microdilution MIC; format: cell-based; conditions: Enterococcus faecalis; Entero. faecalis; 2-3 isolates/organism; read-out: MIC
SARS-CoV-2 [4] = conditions: Calu-3; 10 μM; 24 hpi
Haemophilus influenzae = test: Broth microdilution MIC; format: cell-based; conditions: 2-3 isolates/organism, read-out: MIC
[5] = tested on: Ulcerative Proctosigmoiditis/Ulcerative Proctitis (UP/UPS); test: Phase 2 study CTIX-BRI-206 in Ulcerative Proctosigmoiditis/Ulcerative Proctitis; format: in vivo, human
Source text: Inflammatory biomarkers IL-1β and IL-6 were reduced in colonic tissue biopsies collected at Week 6 (Day 42) compared to those biopsies collected at baseline (FIG. 20, Panel B).

Staph. spp. coagulase- = test: Broth microdilution MIC; format: cell-based; conditions: Staph. spp. coagulase-; 2-3 isolates/organism; read-out: MIC
[6] = tested on: LPS-induced TNF-α release; test: LPS-induced TNF-α release, NR8383 cells, ELISA; format: cell-based; conditions: Rattus norvegicus, 8 h; read-out: IC50, inhibition of LPS-induced TNF-α release
[7] = tested on: luciferase-expressing pseudotyped virus (rVSV) containing the SARS-CoV-2 spike protein; format: cell-based
Staph. epidermidis = test: Broth microdilution MIC; format: cell-based; conditions: Staphylococcus epidermidis; Staph. epidermidis; 2-3 isolates/organism; read-out: MIC
SARS-CoV-2 [8] = format: cell-based; conditions: Calu-3; MOI 0.05; 24 hpi
[9] = tested on: SARS-CoV-2 spike pseudotyped luciferase virus; format: cell-based
Pseud. aeruginosa = test: Broth microdilution MIC; format: cell-based; conditions: Pseudomonas aeruginosa; Pseud. aeruginosa; 2-3 isolates/organism; read-out: MIC
Citrobacter koseri = test: Broth microdilution MIC; format: cell-based; conditions: 2-3 isolates/organism, read-out: MIC
Strept. pyogenes = test: Broth microdilution MIC; format: cell-based; conditions: Streptococcus pyogenes; Strept. pyogenes; 2-3 isolates/organism; read-out: MIC
Staph. saprophyticus = test: Broth microdilution MIC; format: cell-based; conditions: Staphylococcus saprophyticus; Staph. saprophyticus; 2-3 isolates/organism; read-out: MIC
[10] = tested on: LPS-induced CINC-3 release; test: LPS-induced CINC-3 release, NR8383 cells, ELISA; format: cell-based; conditions: Rattus norvegicus, 8-hour exposure, read-out: IC50, inhibition of LPS-induced CINC-3 release
in vitro = conditions: African green monkey
[11] = tested on: Rift Valley fever virus (RFFV); format: cell-based; conditions: Vero; 10, 25 and 50 μM; virus treated only; 24 hpi
Serratia marcescens = test: Broth microdilution MIC; format: cell-based; conditions: 2-3 isolates/organism, read-out: MIC
Staph. aureus (MRSA) = test: Broth microdilution MIC; format: cell-based; conditions: Staphylococcus aureus; Staph. aureus (MRSA); 2-3 isolates/organism; read-out: MIC
HCoV-OC43 = test: Virus yield reduction assay, HCoV-OC43 on RD cells; format: cell-based; conditions: Betacoronavirus 1, 48 hours post-infection
Experimental: For these assays, brilacidin was included during viruses infection and post infection stages. The EC50 values were calculated from best-fit dose response curves with variable slope in Prism 8.

[12] = tested on: LPS-induced MMP-9 release; test: LPS-induced MMP-9 release, NR8383 cells, ELISA; format: cell-based; conditions: Rattus norvegicus, 8-hour exposure, read-out: IC50, inhibition of LPS-induced MMP-9 release
[13] = tested on: S. aureus and coagulase-negative staphylococci; test: Broth microdilution MIC, defined phenotypes in Staphylococcus species
[14] = tested on: Acute Bacterial Skin and Skin Structure Infections (ABSSSI); test: Phase 2 trials in ABSSSI; format: in vivo, human; conditions: single dose and 3-day regimen, IV infusion; Phase 2b CTIX-BRI-204
Source text: Further details on clinical success rates by baseline pathogen for the ABSSSI Phase 2b study are presented in FIG. 26 (blank cells=no participants presented with the specified baseline pathogen. EOT: End of Treatment. STFU: Short-Term Follow-Up).

Enterobacter cloacae = test: Broth microdilution MIC; format: cell-based; conditions: 2-3 isolates/organism, read-out: MIC
[15] = tested on: SARS-CoV-2 (Washington strain 2019-nCoV/USA-WA1/2020); test: microbe, parasite or virus in culture; format: cell-based; conditions: Severe acute respiratory syndrome coronavirus 2, Vero
[16] = tested on: dextran sulfate sodium (DSS) induced colitis; test: Mouse DSS colitis model; format: in vivo, mice
Klebsiella pneumoniae = test: Broth microdilution MIC; format: cell-based; conditions: 2-3 isolates/organism, read-out: MIC
[17] = brilacidin 400 mg/kg, 5-ASA 50 mg/kg per rectum, vs DSS-treated control group, end of study

In the case of `N=C(N)NCCCCC(=O)Nc1cc(C(F)(F)F)cc(NC(=O)c2cc(C(=O)Nc3cc(C(F)(F)F)cc(NC(=O)CCCCNC(=N)N)c3OC3CCNC3)ncn2)c1OC1CCNC1` (centres unmarked) [brilacidin], the “time-kill at >10^3 Log10 Reductions” value [1] is reported as ≤ 2 hours, the IC50 (LPS-induced IL-8 release) is reported as 10.8 µM and the IC50 [2] is reported as 23.4 µM. The “cell viability compared to the DMSO vehicle control” value (Vero cells; concentrations higher than 40 μM) was “dose-dependent, statistically significant decrease in cell viability”, the “cell viability compared to the DMSO vehicle control” value (Vero cells; up to 40 μM) was “did not affect cell viability” and the “folds more selective than natural HDPs” value [3] was 50 to 100 folds. The MIC (Entero. faecalis) was 1 µg/mL (≈ 1.07 µM), the “decrease in the viral genomic copies” value (SARS-CoV-2 [4]) was 33% and the MIC (Haemophilus influenzae) was 4 to 8 µg/mL (≈ 4.27 to 8.54 µM). The “inflammatory biomarkers IL-1β and IL-6 in colonic tissue biopsies” value ([5]; Week 6 (Day 42) compared to baseline) was “reduced”, the “clinical remission (with Endoscopic response), subjects” value ([5]; each cohort (50 mg, 100 mg, 200 mg daily retention enema), after 6 weeks) was > 50% and the MIC (Staph. spp. coagulase-) was 0.25 to 0.5 µg/mL (≈ 0.267 to 0.534 µM). For the same compound, the IC50 [6] was 0.442 µM, the “inhibition of pseudovirus (rVSV) attachment and entry” value [7] was “inhibited the pseudovirus at both concentrations tested in a comparable manner” and the MIC (Staph. epidermidis) was 0.25 to 0.5 µg/mL (≈ 0.267 to 0.534 µM). For the same compound, the “inhibition of infectious titer, each drug alone” value (SARS-CoV-2 [8]) was “up to 90%”, the “inhibition (luciferase activity) vs vehicle control” value ([9]; 0.1 μg/ml) was 29% and the “inhibition (luciferase activity) vs vehicle control” value ([9]; 100 μg/ml) was 85%. For the same compound, the MIC (Pseud. aeruginosa) was 32 µg/mL (≈ 34.2 µM), the MIC (Citrobacter koseri) was 1 to 2 µg/mL (≈ 1.07 to 2.13 µM) and the MIC (Strept. pyogenes) was 1 to 4 µg/mL (≈ 1.07 to 4.27 µM). It also gave an MIC (Staph. saprophyticus) of 0.25 to 0.5 µg/mL (≈ 0.267 to 0.534 µM), an IC50 [10] of 0.425 µM and a CC50 (in vitro) of 79.5 ± 2.42 µM. For the same compound, the “inhibition compared to the DMSO-control” value [11] was “dose-dependent inhibition”, the MIC (Serratia marcescens) was 32 µg/mL (≈ 34.2 µM) and the MIC (Staph. aureus (MRSA)) was 0.5 to 1 µg/mL (≈ 0.534 to 1.07 µM). For the same compound, the EC50 (HCoV-OC43) was 4.81 ± 0.95 µM, the IC50 [12] was 2.3 µM and the “Brilacidin MIC” value ([13]; DAP-NS, OXA-R, 5 isolates) was 0.5-2. For the same compound, the “Brilacidin MIC” value ([13]; Drug-Susceptible, 217 isolates) was 0.25-1, the “Brilacidin MIC” value ([13]; LZD, OXA-R, 5 isolates) was 0.5-1 and the “Brilacidin MIC” value ([13]; OXA-R, 161 isolates) was 0.25-2. For the same compound, the “Brilacidin MIC” value ([13]; VRSA/VISA, DAP-NS, OXA-R, 3 isolates) was 0.5-1, the “Brilacidin MIC” value ([13]; VRSA/VISA, OXA-R, 7 isolates) was 0.5-1 and the “efficacy (early clinical response)” value [14] was “comparable to that a 7-day regimen of daptomycin”. For the same compound, the MIC (Enterobacter cloacae) was 0.5 to 4 µg/mL (≈ 0.534 to 4.27 µM), the inhibition at 10 µM ([15]; read-out: inhibition of SARS-CoV-2 (plaque assay)) was 72% and the inhibition at 10 µM ([15]; read-out: inhibition of infectious viral titer) was 53%. For the same compound, the rectal bleeding ([16]; 400 mg/kg per rectum Days 7-11, by Day 11 vs DSS-treated control group) was “significant decrease”, the stool consistency ([16]; 400 mg/kg per rectum Days 7-11, vs DSS-treated control group) was “significantly more firm” and the “mean reduction in IL-1β in distal colon tissue” value [16, 17] was 27%. The “mean reduction in IL-6 in distal colon tissue” value [16, 17] was 40% and the MIC (Klebsiella pneumoniae) was 1 to 2 µg/mL (≈ 1.07 to 2.13 µM).
